Assay results reported in patent publication US20230092890A1, “1, 3, 4-Oxadiazole derivative compounds as histone deacetylase 6 inhibitor, and the pharmaceutical composition comprising the same” (Chong Kun Dang Pharmaceutical Corp., priority 2019, published 2023).

Tests used:
HDAC6 human recombinant = biological target: T1, HDAC6 human recombinant (Homo sapiens, UniProt Q9UBN7); experiment: HDAC enzyme activity inhibition (in vitro), HDAC6 assay; type: biochemical; conditions: samples at 0.1, 1, 10, 100 and 1000 nM; 37° C. 60 minutes; fluorescence Ex 390, Em 460; read-out: HDAC6 IC50
T1 construct: purchased Calbiochem 382180
T1 sequence (Q9UBN7 1-1215): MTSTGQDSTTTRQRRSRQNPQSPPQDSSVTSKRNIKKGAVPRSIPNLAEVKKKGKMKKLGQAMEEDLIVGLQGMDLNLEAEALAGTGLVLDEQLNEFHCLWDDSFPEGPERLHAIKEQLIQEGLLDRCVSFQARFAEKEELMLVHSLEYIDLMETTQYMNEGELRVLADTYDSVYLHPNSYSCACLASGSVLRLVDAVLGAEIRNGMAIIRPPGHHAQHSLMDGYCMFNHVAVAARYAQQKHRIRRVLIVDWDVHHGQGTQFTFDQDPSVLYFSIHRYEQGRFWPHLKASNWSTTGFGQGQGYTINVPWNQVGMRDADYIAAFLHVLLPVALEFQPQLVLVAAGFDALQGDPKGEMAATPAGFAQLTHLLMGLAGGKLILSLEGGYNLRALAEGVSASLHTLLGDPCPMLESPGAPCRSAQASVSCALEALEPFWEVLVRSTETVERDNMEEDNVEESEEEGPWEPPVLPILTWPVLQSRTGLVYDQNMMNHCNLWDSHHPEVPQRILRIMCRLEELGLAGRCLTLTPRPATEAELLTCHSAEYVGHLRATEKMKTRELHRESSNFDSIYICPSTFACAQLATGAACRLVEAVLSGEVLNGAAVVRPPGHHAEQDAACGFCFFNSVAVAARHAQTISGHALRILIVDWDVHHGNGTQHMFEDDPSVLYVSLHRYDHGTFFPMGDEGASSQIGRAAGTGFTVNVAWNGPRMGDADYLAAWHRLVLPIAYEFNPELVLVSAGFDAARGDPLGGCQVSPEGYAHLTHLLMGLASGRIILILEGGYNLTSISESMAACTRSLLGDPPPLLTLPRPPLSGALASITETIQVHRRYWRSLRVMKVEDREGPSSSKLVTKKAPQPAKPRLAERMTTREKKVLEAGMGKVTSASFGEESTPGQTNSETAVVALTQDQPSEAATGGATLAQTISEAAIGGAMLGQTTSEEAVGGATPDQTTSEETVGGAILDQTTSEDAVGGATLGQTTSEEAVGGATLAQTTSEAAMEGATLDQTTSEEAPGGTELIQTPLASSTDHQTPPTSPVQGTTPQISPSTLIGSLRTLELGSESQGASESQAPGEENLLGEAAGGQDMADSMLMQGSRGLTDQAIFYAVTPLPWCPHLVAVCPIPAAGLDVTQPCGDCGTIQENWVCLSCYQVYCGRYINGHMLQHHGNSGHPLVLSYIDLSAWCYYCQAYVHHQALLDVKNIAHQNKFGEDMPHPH
Method in brief: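 HDAC6 human recombinant enzyme with fluorimetric substrate; […]. Reaction 60 min at 37° C, then developer 30 min at 37° C; fluorescence read at Ex 390/Em 460.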

HDAC1 = biological target: T2, HDAC1 (Homo sapiens, UniProt Q13547); experiment: HDAC enzyme activity inhibition (in vitro), HDAC1 Fluorimetric Drug Discovery Assay Kit; type: biochemical; conditions: samples at 100, 1000 and 10000 nM; 37° C. 60 minutes; fluorescence Ex 390, Em 460; read-out: HDAC1 IC50
T2 construct: purchased Enzolifesciences BML-AK511
T2 sequence (Q13547 whole entry): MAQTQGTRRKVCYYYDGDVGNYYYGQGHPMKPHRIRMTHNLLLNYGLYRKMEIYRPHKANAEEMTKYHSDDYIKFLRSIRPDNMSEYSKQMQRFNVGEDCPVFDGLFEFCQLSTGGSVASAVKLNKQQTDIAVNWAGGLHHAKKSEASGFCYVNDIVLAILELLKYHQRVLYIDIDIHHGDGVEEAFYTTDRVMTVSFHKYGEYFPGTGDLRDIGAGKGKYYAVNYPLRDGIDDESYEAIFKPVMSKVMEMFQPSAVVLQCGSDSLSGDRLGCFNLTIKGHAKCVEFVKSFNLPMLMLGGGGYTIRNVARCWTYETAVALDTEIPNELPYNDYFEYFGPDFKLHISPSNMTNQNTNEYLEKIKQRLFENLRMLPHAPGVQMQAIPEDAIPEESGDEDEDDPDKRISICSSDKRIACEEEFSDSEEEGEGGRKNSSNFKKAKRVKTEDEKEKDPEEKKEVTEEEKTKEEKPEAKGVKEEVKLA
Method in brief: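 HDAC1 was tested at 100, 1000 and 10000 nM and recombinant human HDAC6 at 0.1, 1, 10, 100 and 1000 nM. Enzyme reactions ran 60 min at 37° C, then developer was added for 30 min at 37° C, and fluorescence (Ex 390, Em 460) was read.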

| Structure (SMILES) | IC50 (HDAC6 human recombinant) | IC50 (HDAC1) |
| --- | --- | --- |
| O=c1n(Cc2ccc(-c3nnc(C(F)F)o3)cn2)c2cc(F)c(-c3ccncc3)cc2n1CC1CCN(C2COC2)CC1 [Compound 291, 1-((5-(5-(difluoromethyl)-1,3,4-oxadiazole-2-yl)pyridine-2-yl)methyl)-6-fluoro-3-((1-(oxetan-3-yl)piperidine-4-yl)methyl)-5-(pyridine-4-yl)-1,3-dihydro-2H-benzo[d]imidazole-2-one] | 9 nM | > 10 µM |
| O=c1n(Cc2ccc(-c3nnc(C(F)F)o3)cn2)c2ccccc2n1C1COC1 [Compound 11, 1-((5-(5-(difluoromethyl)-1,3,4-oxadiazole-2-yl)pyridine-2-yl)methyl)-3-(oxetan-3-yl)-1,3-dihydro-2H-benzo[d]imidazole-2-one] | 241 nM | > 10 µM |
| CC(=O)N1CCC(n2c(=O)n(Cc3ccc(-c4nnc(C(F)F)o4)cc3F)c3cc(F)c(F)cc32)CC1 [Compound 174, 1-(1-acetylpiperidine-4-yl)-3-(4-(5-(difluoromethyl)-1,3,4-oxadiazole-2-yl)-2-fluorobenzyl)-5,6-difluoro-1,3-dihydro-2H-benzo[d]imidazole-2-one] | 50 nM | > 10 µM |
| CN1CCC(n2c(=O)n(Cc3ccc(-c4nnc(C(F)F)o4)cn3)c3cc(F)c(-c4cn(C(=O)OC(C)(C)C)c5ccc(Cl)cc45)cc32)CC1 [Compound 254] | 472 nM | > 10 µM |
| Cn1c(=O)n(Cc2ccc(-c3nnc(C(F)F)o3)cn2)c2cc(F)c(-c3cccc(F)c3)cc21 [Compound 166, 1-((5-(5-(difluoromethyl)-1,3,4-oxadiazole-2-yl)pyridine-2-yl)methyl)-6-fluoro-5-(3-fluorophenyl)-3-methyl-1,3-dihydro-2H-benzo[d]imidazole-2-one] | 34 nM | > 10 µM |
| O=c1n(Cc2ccc(-c3nnc(C(F)F)o3)cc2F)c2ccccc2n1C1CCOCC1 [Compound 34, 1-(4-(5-(difluoromethyl)-1,3,4-oxadiazole-2-yl)-2-fluorobenzyl)-3-(tetrahydro-2H-pyran-4-yl)-1,3-dihydro-2H-benzo[d]imidazole-2-one] | 235 nM | > 10 µM |

The next lines start with the values.

| IC50 (HDAC6 human recombinant) | IC50 (HDAC1) | Structure (SMILES) |
| --- | --- | --- |
| 41 nM | > 10 µM | COCCC(=O)N1CCC(n2c(=O)n(Cc3ccc(-c4nnc(C(F)F)o4)cn3)c3cc(F)ccc32)CC1 [Compound 67, 3-((5-(5-(difluoromethyl)-1,3,4-oxadiazole-2-yl)pyridine-2-yl)methyl)-5-fluoro-1-(1-(3-methoxypropanoyl)piperidine-4-yl)-1,3-dihydro-2H-benzo[d]imidazole-2-one] |
| 46 nM | > 10 µM | O=c1n(Cc2ccc(-c3nnc(C(F)F)o3)cc2)c2cc(F)ccc2n1C1CCS(=O)(=O)CC1 [Compound 190, 3-(4-(5-(difluoromethyl)-1,3,4-oxadiazole-2-yl)benzyl)-1-(1,1-dioxydotetrahydro-2H-thiopyran-4-yl)-5-fluoro-1,3-dihydro-2H-benzo[d]imidazole-2-one] |
| 54 nM | > 10 µM | CN1CCC(n2c(=O)n(Cc3ccc(-c4nnc(C(F)F)o4)cc3F)c3ccc(-c4ccco4)cc32)CC1 [Compound 140, 1-(4-(5-(difluoromethyl)-1,3,4-oxadiazole-2-yl)-2-fluorobenzyl)-5-(furan-2-yl)-3-(1-methylpiperidine-4-yl)-1,3-dihydro-2H-benzo[d]imidazole-2-one] |
| 72 nM | > 10 µM | Cc1ccc(C(=O)N2CCC(n3c(=O)n(Cc4ccc(-c5nnc(C(F)F)o5)cn4)c4cc(F)ccc43)CC2)o1 [Compound 66, 3-((5-(5-(difluoromethyl)-1,3,4-oxadiazole-2-yl)pyridine-2-yl)methyl)-5-fluoro-1-(1-(5-methylfuran-2-carbonyl)piperidine-4-yl)-1,3-dihydro-2H-benzo[d]imidazole-2-one] |
